{"source": "patent US10335372B2", "about": "“Compositions with modified nucleases targeted to viral nucleic acids and methods of use for prevention and treatment of viral diseases” (priority 2004, dated 2019)", "molecules": {"B1": {"name": "arDNase (+1): actin-resistant human DNase I with substitution A114R (protein, UniProt P24855 23-282, looked up, variant A114R)", "Deoxyribonuclease-1": "LKIAAFNIQTFGETKMSNATLVSYIVQILSRYDIALVQEVRDSHLTAVGKLLDNLNQDAPDTYHYVVSEPLGRNSYKERYLFVYRPDQVSAVDSYYYDDGCEPCGNDTFNREPRIVRFFSRFTEVREFAIVPLHAAPGDAVAEIDALYDVYLDVQEKWGLEDVMLMGDFNAGCSYVRPSQWSSIRLWTSPTFQWLIPDSADTTATPTHCAYDRIVVAGMLLRGAVVPDSALPFNFQAAYGLSDQLAQAISDHYPVEVMLK"}, "B2": {"name": "PEG-DNase: human DNase I conjugated with PEG (Example 14) (conjugate, UniProt P24855 23-282, looked up)", "Deoxyribonuclease-1": "B1 Deoxyribonuclease-1 with R114A", "modifications": "PEG"}, "B3": {"name": "(PNA)2-PEG-DNase: 18-mer bis-PNA complementary to viral DNA conjugated with forked 2×20 kDa PEG and human DNase I (conjugate, UniProt P24855 23-282, looked up)", "Deoxyribonuclease-1": "B1 Deoxyribonuclease-1 with R114A", "modifications": "forked 2x20 kDa PEG, bis-PNA"}}, "key": {"HIV-1": {"test_system": "HIV-1", "test": "HIV-1 infectivity on serial passage in MT-4 cells with drug", "type": "cell-based"}, "HIV-1 (HXB2)": {"test_system": "HIV-1 (HXB2)", "test": "Plaque reduction assay in CD4+ HeLa cells of serially passaged virus", "type": "cell-based"}, "avian adenovirus": {"test_system": "avian adenovirus", "design": "species or system chickens", "conditions": "in vivo"}, "[1]": {"test_system": "herpes virus simplex I (HSV-I)", "test": "Effect of tri-peptide P3 and P-PEG-R8 on replication of HSV-1 in vitro", "type": "cell-based", "conditions": "for HSV Titer: single values"}, "dsDNA": {"test_system": "dsDNA", "test": "Hydrolysis of dsDNA in human serum by native, multi-charged and actin-resistant DNase I variants"}, "cytomegalovirus": {"test_system": "cytomegalovirus", "test": "Antiviral activity of modified DNase I against cytomegalovirus in cell culture", "conditions": "500 UA/ml, 48 h at 37° C.; for Virus Titer: single values"}}, "note": "Where a chain is given by its changes, count along the chain named. Names may count otherwise. “And” between values parts separate entries of the source, which are not always exact repeats. Identical values can stand only once. Where no end group is shown, it is not given here. [ ]: non-standard residue; d: D form."}
{"molecule": "Cc1cn([C@H]2C[C@H](N=[N+]=[N-])[C@@H](CO)O2)c(=O)[nH]c1=O", "note": "[AZT]", "values": [{"measurement": "HIV-1 infectivity", "setting": "HIV-1; passage 0", "value": 2.8, "unit": "log10TCID50/ml"}, {"measurement": "HIV-1 infectivity", "setting": "HIV-1; passage 1", "value": 2.6, "unit": "log10TCID50/ml"}, {"measurement": "HIV-1 infectivity", "setting": "HIV-1; passage 2", "value": 3.8, "unit": "log10TCID50/ml"}, {"measurement": "HIV-1 infectivity", "setting": "HIV-1; passage 5", "value": 4.7, "unit": "log10TCID50/ml"}, {"measurement": "HIV-1 infectivity", "setting": "HIV-1; passage 15", "value": 5.9, "unit": "log10TCID50/ml"}, {"measurement": "shift in sensitivity", "setting": "HIV-1 (HXB2); sixth passage", "value": "> 1000", "unit": "fold"}, {"measurement": "IC50", "setting": "HIV-1 (HXB2); virus of fourth passage in drug-treated MT-4 cells", "value": "> 50", "unit": "µM"}, {"measurement": "IC50", "setting": "HIV-1 (HXB2); virus of sixth passage", "value": "> 250", "unit": "µM"}]}
{"molecule": "[dS]-His", "values": [{"measurement": "chickens that survive", "setting": "avian adenovirus", "value": 18}]}
{"molecule": "[dS]-His-[dD] [P3]", "values": [{"measurement": "chickens that survive", "setting": "avian adenovirus", "value": 19}, {"measurement": "Average Titer", "setting": "[1]; 10 UA/ml", "value": 5.7, "unit": "logTCD50/ml"}, {"measurement": "HSV Titer", "setting": "[1]; 10 UA/ml", "value": "5.8 logTCD50/ml and 5.6 logTCD50/ml and 5.7 logTCD50/ml"}, {"measurement": "Average Titer", "setting": "[1]; 50 UA/ml", "value": 5.4, "unit": "logTCD50/ml"}, {"measurement": "HSV Titer", "setting": "[1]; 50 UA/ml", "value": "5.5 logTCD50/ml and 5.4 logTCD50/ml and 5.3 logTCD50/ml"}, {"measurement": "Average Titer", "setting": "[1]; 100 UA/ml", "value": 5.1, "unit": "logTCD50/ml"}, {"measurement": "HSV Titer", "setting": "[1]; 100 UA/ml", "value": "5.2 logTCD50/ml and 5.3 logTCD50/ml and 5.1 logTCD50/ml"}, {"measurement": "Average Titer", "setting": "[1]; 500 UA/ml", "value": 4.8, "unit": "logTCD50/ml"}, {"measurement": "HSV Titer", "setting": "[1]; 500 UA/ml", "value": "4.8 logTCD50/ml and 4.9 logTCD50/ml and 4.7 logTCD50/ml"}]}
{"molecule": "B1", "values": [{"measurement": "Average T50 (min) 50% DNA hydrolysis", "setting": "dsDNA", "value": 3, "unit": "min"}, {"measurement": "Time T50 (min) 50% DNA hydrolysis", "setting": "dsDNA; single values of triplicate", "value": "2 min and 3 min and 4 min"}]}
{"molecule": "B2", "values": [{"measurement": "Average Titer", "setting": "cytomegalovirus", "value": 3.4, "unit": "logTCD50/0.1 ml"}, {"measurement": "Virus Titer", "setting": "cytomegalovirus", "value": "3.2 logTCD50/0.1 ml and 3.4 logTCD50/0.1 ml and 3.5 logTCD50/0.1 ml"}]}
{"molecule": "B3", "values": [{"measurement": "Average Titer", "setting": "cytomegalovirus", "value": 0.3, "unit": "logTCD50/0.1 ml"}, {"measurement": "Virus Titer", "setting": "cytomegalovirus", "value": "0.2 logTCD50/0.1 ml and 0.3 logTCD50/0.1 ml and 0.4 logTCD50/0.1 ml"}]}
